{"source": "patent US20230082287A1", "about": "“METHODS OF TREATING AN INFLAMMATORY OR OBSTRUCTIVE AIRWAY DISEASE USING ANTI-TSLP ANTIBODY” (Novartis AG, priority 2020, published 2023)", "key": {"[1]": {"test_system": "late asthmatic response (LAR)", "conditions": "400/12 μg; J ALLERGY CLIN IMMUNOL VOLUME 119, NUMBER 2, pp 322-327; cited from earlier work"}, "[2]": {"test_system": "late asthmatic response (LAR)", "assay": "Published allergen challenge LAR data for budesonide/formoterol", "assay_type": "in vivo", "conditions": "400/12 μg; calculated from published data", "description": "Published data from other widely asthma treatment budosenide/formoterol (ICS/LABA, inhaled corticosteroid+long-acting beta agonist) combination was used in a similar fashion to calculate its efficacy and results compared with CSJ117 in Table 10."}}, "data": [{"substance": "Budesonide/formoterol", "values": [{"measurement": "LAR Treatment (A), maximal fall % FEV1", "setting": "[1]", "value": 4.2, "unit": "%"}, {"measurement": "E, % [(B-A)/B]*100", "setting": "[2]", "value": 80.2, "unit": "%"}, {"measurement": "LAR B-A (placebo minus treatment), maximal fall % FEV1", "setting": "[2]", "value": 17}]}]}
